# Reference: patent publication US7687609B2, “Galectin-glycosaminoglycan complex and method for controlling galectin activity” (National Institute of Advanced Industrial Science and …, priority 2006, dated 2010)
# Experiments:
# Format in all cases: binding
# [1] = tested on: tested galectin molecules (galectin-1, 3, 8N, 8C, 9N and 9C); assay: FAC affinity test, statements on the whole panel of tested galectins; conditions: Table 3, whole galectin panel
# Source text: Using FAC, the present inventors have conducted a comprehensive analysis of the interactions between various galectin molecules (galectin-1, 3, 8N, 8C, 9N and 9C; N and C respectively represent N-terminal side carbohydrate-recognition domain and C-terminal side carbohydrate-recognition domain)-immobilized columns and various fluorescence-labeled glycosaminoglycan molecules. As a result, novel affinity was found by the combination of specific galectin molecules and glycosaminoglycan molecules to thereby accomplish the present invention.
# (§1) A high performance liquid chromatography (HPLC) system was equipped with a galectin molecule-immobilized column, and the test was carried out by the method described in Nakamura S, Yagi F, Totani K, Ito γ and Hirabayashi J in FEBS J., 272, 2784-2799 (2005).
# (§2) As the negative control sample, pyridyl-aminated N-acetylglucosamine (PA-GlcNAc, manufactured by Takara Bio, pyridyl-aminated glycosaminoglycan-oligosaccharide sample control) or pyridyl-aminated pullulan (prepared by carrying out pyridylamination of standard pullulan manufactured by Shodex, pyridyl-aminated glycosaminoglycan polysaccharide sample control) was used, and a V−V0 value was calculated from their eluate volume (V0 value) measured by fluorescence detection and the eluate volume (V value) of the sample, namely pyridyl-aminated glycosaminoglycan carbohydrate, and this was used as the index of interaction strength (Protein, Nucleic Acid and Enzyme, 48(8), 1206-1212 (2003)).
# (§3) In this connection, when the calculated value of the V−V0 value was less than 5 μl, it was regarded as less than the interaction detection limit in this example.
# [2] = target: T1, Galectin-9N (Homo sapiens, UniProt O00182); assay: FAC affinity test on galectin-immobilized column; conditions: for V − V0 Value: pyridyl-aminated carbohydrate, galectin-9N immobilized 3.6 mg/ml, less than 5 μl = below interaction detection limit; for binding to galectin-9N (in words): text statement on the FAC results
# T1 construct: N and C respectively represent N-terminal side carbohydrate-recognition domain and C-terminal side carbohydrate-recognition domain; made in house
# Protocol: (§4) Various galectin molecules-immobilized columns were prepared by the method described by Nakamura S, Yagi F, Totani K, Ito γ and Hirabayashi J in FEBS J., 272, 2784-2799 (2005), using NHS Sepharose (manufactured by Amersham Bioscience) as the carrier for immobilizing galectin molecules and in accordance with the instructions attached thereto (put in parentheses is immobilization concentration, mg galectin/ml carrier).
# (§5) Each galectin molecule was immobilized onto the carrier at the following concentration; galectin-1 (0.8 mg/ml), galectin-3 (0.5 mg/ml), galectin-8N (3.6 mg/ml), galectin-8C (4.0 mg/ml), galectin-9N (3.6 mg/ml), galectin-9C (3.0 mg/ml). The carrier on which each galectin was immobilized was charged into a stainless steel miniature column (2 mm in inner diameter, 10 mm in length; manufactured by Shimadzu Corp.).
# as §1, §2
# (§6) V−V0 values of pyridyl-aminated glycosaminoglycans (HA, CH, DN, NAH, CSA, CSB, CSC, CSD, CSE, KS-I and KS-II) were calculated based on PA-GlcNAc, and V−V0 values of pyridyl-aminated glycosaminoglycan-oligosaccharides (G2K1, G1L1, G4L4, L2L2, L2L4, L4L4, SL2L4 and CH3 to CH12) based on pyridyl-aminated pullulan, respectively.
# as §3
# [3] = target: T2, Galectin-8C (Homo sapiens, UniProt O00214); assay: FAC affinity test on galectin-immobilized column; conditions: pyridyl-aminated carbohydrate; galectin-8C immobilized 4.0 mg/ml; less than 5 μl = below interaction detection limit
# T2 construct: N and C respectively represent N-terminal side carbohydrate-recognition domain and C-terminal side carbohydrate-recognition domain; made in house
# T2 sequence (O00214 187-317 limits assumed): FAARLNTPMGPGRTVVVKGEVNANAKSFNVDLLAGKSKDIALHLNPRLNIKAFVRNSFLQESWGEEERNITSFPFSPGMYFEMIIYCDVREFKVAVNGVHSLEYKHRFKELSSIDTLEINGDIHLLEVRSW
# Protocol: as §4, §5, §1, §2, §6, §3
# [4] = target: T3, Galectin-1 (Homo sapiens, UniProt P09382); assay: FAC affinity test on galectin-immobilized column; conditions: for V − V0 Value: pyridyl-aminated carbohydrate, galectin-1 immobilized 0.8 mg/ml, less than 5 μl = below interaction detection limit; for binding to galectin-1 (in words): text statement on the FAC results
# T3 construct: made in house
# Protocol: as §4, §5, §1, §2, §6, §3
# [5] = target: T4, Galectin-3 (Homo sapiens, UniProt P17931); assay: FAC affinity test on galectin-immobilized column; conditions: for V − V0 Value: pyridyl-aminated carbohydrate, galectin-3 immobilized 0.5 mg/ml, less than 5 μl = below interaction detection limit; for binding to galectin-3 (in words): text statement on the FAC results
# T4 construct: made in house
# Protocol: as §4, §5, §1, §2, §6, §3
# [6] = target: T5, Galectin-8N (Homo sapiens, UniProt O00214); assay: FAC affinity test on galectin-immobilized column; conditions: pyridyl-aminated carbohydrate; galectin-8N immobilized 3.6 mg/ml; less than 5 μl = below interaction detection limit
# T5 construct: N and C respectively represent N-terminal side carbohydrate-recognition domain and C-terminal side carbohydrate-recognition domain; made in house
# T5 sequence (O00214 19-152 limits assumed): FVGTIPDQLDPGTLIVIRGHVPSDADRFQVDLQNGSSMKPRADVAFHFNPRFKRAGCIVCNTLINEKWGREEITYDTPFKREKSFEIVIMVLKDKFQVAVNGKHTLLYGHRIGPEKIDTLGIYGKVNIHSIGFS
# Protocol: as §4, §5, §1, §2, §6, §3
# [7] = target: T6, Galectin-9C (Homo sapiens, UniProt O00182); assay: FAC affinity test on galectin-immobilized column; conditions: for V − V0 Value: pyridyl-aminated carbohydrate, galectin-9C immobilized 3.0 mg/ml, less than 5 μl = below interaction detection limit; for binding to galectin-9C (in words): text statement on the FAC results
# T6 construct: N and C respectively represent N-terminal side carbohydrate-recognition domain and C-terminal side carbohydrate-recognition domain; made in house
# Protocol: as §4, §5, §1, §2, §6, §3
# T4 sequence (P17931 whole entry): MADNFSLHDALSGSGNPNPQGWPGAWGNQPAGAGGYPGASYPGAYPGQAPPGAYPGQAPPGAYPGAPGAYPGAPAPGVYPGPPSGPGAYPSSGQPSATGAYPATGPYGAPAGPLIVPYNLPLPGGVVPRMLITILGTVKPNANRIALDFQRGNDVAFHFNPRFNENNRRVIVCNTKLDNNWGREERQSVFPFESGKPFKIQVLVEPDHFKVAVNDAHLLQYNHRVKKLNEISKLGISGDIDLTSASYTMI
# T3 sequence (P09382 whole entry): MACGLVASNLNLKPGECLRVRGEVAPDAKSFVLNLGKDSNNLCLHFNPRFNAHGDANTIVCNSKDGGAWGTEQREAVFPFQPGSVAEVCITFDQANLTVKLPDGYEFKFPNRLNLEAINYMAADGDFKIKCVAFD
# T1 sequence (O00182 17-148 limits assumed): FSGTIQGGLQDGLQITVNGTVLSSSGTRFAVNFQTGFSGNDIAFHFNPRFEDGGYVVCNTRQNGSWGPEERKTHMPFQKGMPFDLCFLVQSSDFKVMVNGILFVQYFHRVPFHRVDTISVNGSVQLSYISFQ
# T6 sequence (O00182 227-355 limits assumed): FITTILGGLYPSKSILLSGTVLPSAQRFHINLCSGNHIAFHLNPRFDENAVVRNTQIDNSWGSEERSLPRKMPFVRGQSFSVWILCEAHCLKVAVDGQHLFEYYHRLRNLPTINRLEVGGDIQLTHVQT
SMILES,binding to the tested galectin molecules (in words) [1],V − V0 Value [2] [µL],binding to galectin-9N (in words) [2],V − V0 Value [3] [µL],V − V0 Value [4] [µL],V − V0 Value [5] [µL],binding to galectin-3 (in words) [5],V − V0 Value [6] [µL],V − V0 Value [7] [µL],binding to galectin-1 (in words) [4],binding to galectin-9C (in words) [7]
"CC(=O)N[C@H]1[C@H](O[C@H]2[C@@H](O)[C@@H](CO)O[C@@H](O[C@H]3[C@H](O)[C@@H](NC(C)=O)C(O)O[C@@H]3CO)[C@@H]2O)O[C@H](CO)[C@@H](O)[C@@H]1O (stereo partly drawn) [G1L1, GlcNAc β1-3 Gal β1-4 GlcNAc]",bound to various galectin molecules,13.6 ± 0.5,showed binding affinity,<5.0,<5.0,14.2 ± 1.3,showed binding affinity,<5.0,<5.0,,
"CC(=O)N[C@H]1[C@H](O[C@H]2[C@@H](O)[C@@H](CO)OC(O)[C@@H]2O)O[C@H](CO)[C@@H](O[C@@H]2O[C@H](CO)[C@H](O)[C@H](O)[C@H]2O)[C@@H]1O (stereo partly drawn) [G2K1, Gal β1-4 GlcNAc β1-3 Gal]",bound to various galectin molecules,5.1 ± 1.3,showed binding affinity,<5.0,21.8 ± 1.9,11.6 ± 0.1,showed binding affinity,<5.0,6.7 ± 0.2,showed binding affinity,showed binding affinity
"CC(=O)N[C@H]1[C@H](O[C@H]2[C@@H](O)[C@@H](COS(=O)(=O)O)O[C@@H](O[C@H]3[C@H](O)[C@@H](NC(C)=O)C(O)O[C@@H]3COS(=O)(=O)O)[C@@H]2O)O[C@H](COS(=O)(=O)O)[C@@H](O)[C@@H]1O (stereo partly drawn) [G4L4, GlcNAc6S β1-3 Gal6S β1-4 GlcNAc6S]",did not bind,<5.0,,<5.0,<5.0,<5.0,,<5.0,<5.0,,
"CC(=O)N[C@H]1[C@H](O[C@H]2[C@@H](O)[C@@H](COS(=O)(=O)O)O[C@@H](O[C@H]3[C@H](O)[C@@H](NC(C)=O)C(O)O[C@@H]3COS(=O)(=O)O)[C@@H]2O)O[C@H](COS(=O)(=O)O)[C@@H](O[C@@H]2O[C@H](CO)[C@H](O)[C@H](O)[C@H]2O)[C@@H]1O (stereo partly drawn) [L2L4, Gal β1-4 GlcNAc6S β1-3 Gal6S β1-4 GlcNAc6S]",bound to various galectin molecules,6.6 ± 1.4,showed binding affinity,<5.0,5.8 ± 0.2,15.8 ± 1.8,showed binding affinity,<5.0,5.3 ± 0.7,showed binding affinity,showed binding affinity
"CC(=O)NC1C(O)OC(COS(=O)(=O)[O-])C(OC2OC(COS(=O)(=O)[O-])C(O)C(OC3OC(COS(=O)(=O)[O-])C(OC4OC(COS(=O)(=O)[O-])C(O)C(O)C4O)C(O)C3NC(C)=O)C2O)C1O.[Na+].[Na+].[Na+].[Na+] (stereo not drawn) [L4L4, Gal6S β1-4 GlcNAc6S β1-3 Gal6S β1-4 GlcNAc6S]",did not bind,<5.0,,<5.0,<5.0,<5.0,,<5.0,<5.0,,
